Laboratory results as given in patent US20240398771A1, “TREATMENT OF SCLERODERMA AND RAYNAUD'S SYNDROME” (Aisa Pharma, Inc., priority 2023, published 2024).
Entries after “also recorded” stand apart in the source; their conditions may differ.

Tests used:
participants with SSc-RP [1] = assay: Average severity (0-10) of weekly RP attacks, all attacks; type: in vivo, human; conditions: excluding outliers, ITT Part A
From the text: (§1) The relevant metrics measured by this tool daily are: • Study medication • SSc-RP symptoms (Reporting an attack including duration of attack) • Severity of the attack considering all symptoms of the attack e.g. tingling, numbness, pain, color changes (VAS 0-10 cm scale) • Participant's location at the time of the attack (inside home/outside home) • Selecting symptoms experienced during the attack (tingling, numbness, pain, color changes, other) • Pain rating during the attack (11-point Likert scale) • The RCS based on how much difficulty participants had with Raynaud's today, how many attacks the participant had, and how long they lasted. Participants will also be asked to consider how much pain, numbness, or other symptoms the Raynaud's caused in fingers (including painful sores), and how much the Raynaud's alone affected the use of hands today (VAS 0-10 cm scale).
The absolute change in average severity of weekly RP attacks (VAS 0-10 cm scale) from baseline to the end of each Dosing Period was and will be a secondary outcome variable. The sponsor-developed participant-informed diary will be used to record data. Average severity of weekly RP attacks is defined as the total severity scores of RP attacks divided by total number of RP attacks within the last 7 days of each dosing period. Total severity scores of RP attacks during the last 7 days of screening period divided by the total number of RP attacks will be used as baseline for the analysis of all periods. The variable will be calculated similar to frequency data as before.

participants with SSc-RP [2] = assay: Adverse events and serious adverse events (safety, tolerability); type: in vivo
From the text: In this study, AEs and SAEs will be reported for all participants from the time of randomization until the completion of the Follow-up/EOS visit. Adverse events that are ongoing at the EOS visit will be marked as Not Recovered/Not resolved on the AE eCRF page.
An AE is any event, side effect, or other untoward medical occurrence that occurs in conjunction with the use of a medicinal product in humans, whether or not considered to have a causal relationship to this treatment. An AE can, therefore, be any unfavorable and unintended sign (that could include a clinically significant abnormal laboratory finding), symptom, or disease temporally associated with the use of a medicinal product, whether or not considered related to the medicinal product.
Severity of AEs will be graded by the Investigator as one of: • Mild (Grade 1): A type of AE that is usually transient and may require only minimal treatment or therapeutic intervention.
An SAE is an AE occurring during any study phase (i.e. baseline, treatment, washout, or follow-up), and at any dose of the study drug (active or placebo), that fulfills one or more of the following: • Results in death • It is immediately life-threatening • It requires in participant hospitalization or prolongation of existing hospitalization • It results in persistent or significant disability or incapacity • Results in a congenital abnormality or birth defect • It is an important medical event that may jeopardize the participant or may require medical intervention to prevent one of the outcomes listed above.
Adverse events will be coded using the most current version of the MedDRA® Version 22.0 or higher. The analysis of AEs will be based on the concept of treatment emergent AEs. Treatment emergent AEs will be tabulated by treatment group and will include the number of participants for whom the event occurred, the severity, and relationship to study drug. Treatment emergent AEs (TEAEs) leading to discontinuation and SAEs with onset after the start of study drug will also be summarized.
Treatment-emergent AEs (TEAEs) are defined as AEs that occur or worsen after the dose of study drug. If the timing of the start of an AE could not be determined unambiguously from the start or end dates provided, it will be assumed to be a TEAE. An AE is considered related if the relationship to either of the study drug has been indicated as possibly or probably or definite related by the investigator. An AE leading to study withdrawal is defined as an AE that cause a subject early terminated from the study. AEs will be identified as emerging in the following parts: • TEAEs for Part A will be those that started during Part A (i.e., from the first dose in Part A to end of follow up of Part A) • TEAEs for Part B will be those that started during Part B (i.e., from the first dose in Part B to end of follow-up of Part B).
• Incidence of treatment emergent adverse events (AEs) and serious adverse events (SAEs), including clinically significant vital signs. For Part A safety will be assessed from the time of randomization until 7 days following the last protocol dose. For Part B, participants will be followed for 28 days from the last study dose. • Serious adverse events will be monitored by a DSMB (Part A) and Drug Safety Officer (Part B) on an ongoing basis throughout the study. • Adverse events will be coded using the MedDRA and summarized by SOC, PT, and treatment group.

participants with SSc-RP [3] = assay: Average daily Raynaud's Condition Score (RCS); type: in vivo, human; set-up: key to Average Daily RCS: Baseline, Mean / Average Daily RCS: Baseline, Median: daily RCS on VAS 0-10 cm scale; conditions: ITT Part A
From the text: as §1
The RCS is based on how much difficulty participants had with Raynaud's today, how many attacks the participant had, and how long they lasted. In addition participants were and will be asked to consider how much pain, numbness, or other symptoms the Raynaud's caused in fingers (including painful sores), and how much the Raynaud's along affected the use of hand today (VAS 0-10 cm scale).
The absolute change in average daily RCS from baseline to the end of each dosing period was and will be a secondary outcome variable. The sponsor-developed participant-informed diary has been and will be used to record data. The average daily RCS is defined as the total RCS divided by the number of days with available diary data of each dosing period. Total RCS during screening period divided by the number of days with available data will be used as baseline for the analysis of all periods. If there are multiple daily RCS scores, the latest daily RCS will be used. The variable will be calculated similar to frequency data as before.

[4] = Tadalafil 5 mg, baseline RCS subgroup 2 of 2
[5] = Cilnidipine 10 mg, baseline RCS subgroup 1 of 2
[6] = Cilnidipine 20 mg, baseline RCS subgroup 1 of 2
[7] = Pooled Cilnidipine 10 mg and Cilnidipine 10 mg + Tadalafil 5 mg, baseline RCS subgroup 1 of 2
[8] = Pooled Cilnidipine 10 mg and Cilnidipine 10 mg + Tadalafil 5 mg, baseline RCS subgroup 2 of 2
[9] = Pooled Cilnidipine 20 mg and Cilnidipine 20 mg + Tadalafil 5 mg, baseline RCS subgroup 1 of 2
[10] = Pooled Cilnidipine 20 mg and Cilnidipine 20 mg + Tadalafil 5 mg, baseline RCS subgroup 2 of 2
[11] = Pooled Cilnidipine, baseline RCS subgroup 1 of 2
[12] = Cilnidipine 10 mg, excluding outliers
[13] = Cilnidipine 20 mg, excluding outliers
[14] = Pooled Cilnidipine 20 mg and Cilnidipine 20 mg + Tadalafil 5 mg, excluding outliers
[15] = Pooled Cilnidipine, excluding outliers

With `CN1CC(=O)N2[C@H](c3ccc4c(c3)OCO4)c3[nH]c4ccccc4c3C[C@@H]2C1=O` [Tadalafil] the “Average Severity of Weekly RP Attacks (All Attacks): Average Severity, Mean” value (“Average Severity … Average Severity, Mean” below) (participants with SSc-RP [1]; [4]) was 4.56, the “Average Severity of Weekly RP Attacks (All Attacks): Average Severity, Median” value (shortened to “Average Severity … Average Severity, Median”) (participants with SSc-RP [1]; [4]) was 4.56 and the “Average Severity of Weekly RP Attacks (All Attacks): Baseline, Mean” value (“Average Severity … Baseline, Mean” below) (participants with SSc-RP [1]; [4]) was 5.75. For the same compound, the “Average Severity of Weekly RP Attacks (All Attacks): Baseline, Median” value (“Average Severity … Baseline, Median” for short) (participants with SSc-RP [1]; [4]) was 5.75, the “Adverse Events (AEs): worst AE by group” value (participants with SSc-RP [2]; tadalafil monotherapy group) was “Worst AE in tadalafil” and the “Average Daily RCS: Baseline, Mean” value (participants with SSc-RP [3]; Tadalafil 5 mg) was 7.72. The “Average Daily RCS: Baseline, Median” value (participants with SSc-RP [3]; Tadalafil 5 mg) was 7.72.

For `COCCOC(=O)C1=C(C)NC(C)=C(C(=O)OC/C=C/c2ccccc2)C1c1cccc([N+](=O)[O-])c1` (centres unmarked) [Cilnidipine, 1,4-dihydro-2,6-dimethyl,4-(3-nitrophenyl)-3,5-pyridinedicarboxylic acid 2-methoxyethyl (2 E)-3-phenyl-2-propenyl ester], the “Average Severity … Baseline, Mean” value (participants with SSc-RP [1]; [5]) was 3.03, the “Average Severity … Baseline, Median” value (participants with SSc-RP [1]; [5]) was 3.03 and the “Average Severity … Average Severity, Mean” value (participants with SSc-RP [1]; [6]) was 2.30. For the same compound, the “Average Severity … Average Severity, Median” value (participants with SSc-RP [1]; [6]) was 2.30, the “Average Severity … Baseline, Mean” value (participants with SSc-RP [1]; [6]) was 3.37 and the “Average Severity … Baseline, Median” value (participants with SSc-RP [1]; [6]) was 3.37. For the same compound, the “Average Severity … Average Severity, Mean” value (participants with SSc-RP [1]; [7]) was 2.97, the “Average Severity … Average Severity, Median” value (participants with SSc-RP [1]; [7]) was 2.97 and the “Average Severity … Baseline, Mean” value (participants with SSc-RP [1]; [7]) was 4.33. For the same compound, the “Average Severity … Baseline, Median” value (participants with SSc-RP [1]; [7]) was 4.33, the “Average Severity … Average Severity, Mean” value (participants with SSc-RP [1]; [8]) was 4.90 and the “Average Severity … Average Severity, Median” value (participants with SSc-RP [1]; [8]) was 4.90. For the same compound, the “Average Severity … Baseline, Mean” value (participants with SSc-RP [1]; [8]) was 6.22, the “Average Severity … Baseline, Median” value (participants with SSc-RP [1]; [8]) was 6.22 and the “Average Severity … Average Severity, Mean” value (participants with SSc-RP [1]; [9]) was 2.78. For the same compound, the “Average Severity … Average Severity, Median” value (participants with SSc-RP [1]; [9]) was 2.40, the “Average Severity … Baseline, Median” value (participants with SSc-RP [1]; [9]) was 4.12 and the “Average Severity … Baseline, Mean” value (participants with SSc-RP [1]; [10]) was 6.59. The “Average Severity … Baseline, Median” value (participants with SSc-RP [1]; [10]) was 6.59, the “Average Severity … Average Severity, Median” value (participants with SSc-RP [1]; [11]) was 2.40 and the “Average Severity … Baseline, Mean” value (participants with SSc-RP [1]; [11]) was 3.26. The “Average Severity … Baseline, Median” value (participants with SSc-RP [1]; [11]) was 3.03, the “Safety: withdrawals” value (participants with SSc-RP [2]; Cilnidipine 20 mg (n = 8)) was 1 withdrawal and the “Safety: number of AE” value (participants with SSc-RP [2]; Cilnidipine 20 mg (n = 8), HA-mild) was 1AE (HA-mild;. For the same compound, the “severity grade of adverse events” value (participants with SSc-RP [2]; Example 4) was “only Grade 1 Adverse Events (AEs) were reported; also recorded: only mild (Grade 1) adverse events occurred”, the tolerability (participants with SSc-RP [2]; Example 4, 10 mg and 20 mg, alone or in combination with tadalafil) was “well tolerated; also recorded: good tolerability” and the “overall adverse event rate / incidence of Adverse Events” value (participants with SSc-RP [2]; Example 4, all patients who received any dose of cilnidipine (n=17)) was 17%. The “Safety: withdrawals” value (participants with SSc-RP [2]; Pooled Cilnidipine (n = 9)) was “T); no withdrawals”, the “Safety: number of AE” value (participants with SSc-RP [2]; Pooled Cilnidipine (n = 9), AE in combo with T) was 1AE (in combo with and the “Average Daily RCS: Baseline, Mean” value (participants with SSc-RP [3]; [12]) was 2.74. For the same compound, the “Average Daily RCS: Baseline, Median” value (participants with SSc-RP [3]; [12]) was 2.74, the “Average Daily RCS (dosing period), Mean” value (participants with SSc-RP [3]; [13]) was 2.90 and the “Average Daily RCS (dosing period), Median” value (participants with SSc-RP [3]; [13]) was 2.90. For the same compound, the “Average Daily RCS: Baseline, Median” value (participants with SSc-RP [3]; [13]) was 3.35, the “Average Daily RCS: Baseline, Mean” value (participants with SSc-RP [3]; Pooled Cilnidipine 10 mg and Cilnidipine 10 mg + Tadalafil 5 mg, excluding outliers) was 4.07 and the “Average Daily RCS (dosing period), Mean” value (participants with SSc-RP [3]; [14]) was 3.60. The “Average Daily RCS: Baseline, Mean” value (participants with SSc-RP [3]; [14]) was 4.68, the “Average Daily RCS: Baseline, Median” value (participants with SSc-RP [3]; [14]) was 3.74 and the “Average Daily RCS: Baseline, Mean” value (participants with SSc-RP [3]; [15]) was 3.15. The “Average Daily RCS: Baseline, Median” value (participants with SSc-RP [3]; [15]) was 2.80.
